Laboratory results published in article PMC8098682 (Chemical Science, 2021).

Molecular target: T1, isocitrate lyase (ICL) (Salmonella enterica, UniProt P51066)
T1 sequence (P51066 1-434): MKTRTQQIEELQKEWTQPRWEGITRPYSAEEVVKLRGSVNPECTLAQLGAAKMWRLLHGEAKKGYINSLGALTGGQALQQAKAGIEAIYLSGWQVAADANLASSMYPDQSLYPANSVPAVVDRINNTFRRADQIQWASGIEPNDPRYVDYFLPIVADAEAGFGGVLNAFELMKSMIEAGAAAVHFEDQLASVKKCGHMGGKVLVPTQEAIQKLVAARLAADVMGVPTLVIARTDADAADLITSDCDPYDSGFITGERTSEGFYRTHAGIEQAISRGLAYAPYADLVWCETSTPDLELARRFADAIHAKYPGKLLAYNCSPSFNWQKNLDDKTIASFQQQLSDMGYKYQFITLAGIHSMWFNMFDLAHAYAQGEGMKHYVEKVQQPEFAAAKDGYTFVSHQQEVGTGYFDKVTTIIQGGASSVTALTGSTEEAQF
Assay: enzyme activity assay of purified ICL
Assay type: biochemical

C=C(CC(=O)O)C(=O)O [ITA, itaconate]
IC50: ~2600 µM
